Measured values published in the C3SDB collision cross section collection.
Values joined by “and” are separate entries in the source; they are usually repeats but may differ in a detail not shown here. Identical values can stand only once. One block for each molecule: values may come before it.

Experiments:
[1] = instrument: DT, stepped-field
[2] = instrument: TW, calibrated with polyalanine
[3] = instrument: DT, stepped-field; remark: listed apart in the source
[4] = instrument: DT, single field, calibrated with Agilent tune mix (Agilent)
[5] = instrument: DT, single field, calibrated with Agilent tune mix (Agilent); remark: listed apart in the source

Structure (SMILES): N[C@@H](CCS)C(=O)O [Homocysteine]
- collision cross section (N2) ([2]; [M+H]+): 124 Å²
- collision cross section (N2) ([3]; [M+H]+): 130.53 Å²

Structure (SMILES): CCCCCCCCCC/C=C\CCCCCCCCCC(=O)O[C@H](COC(=O)CCCCCCCCCCC)COP(=O)([O-])OCC[N+](C)(C)C [PC(16:0/18:1)]
- collision cross section (N2) ([1]; [M+H]+): 291.4 Å² and 299.1 Å²

Structure (SMILES): CN(C)CC(=O)O [Dimethylglycine]
- collision cross section (N2) ([2]; [M+H]+): 116 Å²
- collision cross section (N2) ([5]; [M+H]+): 119.7 Å²

Structure (SMILES): CCCCCC/C=C\CCCCCCCC(=O)OC[C@@H](O)COP(=O)(O)O[C@H]1C(O)C(O)C(O)[C@@H](O)C1O (stereo not given in full) [LPI(16:1)]
- collision cross section (N2) ([1]; [M-H]-): 226.1 Å²

Structure (SMILES): O=c1nc[nH]c2nc[nH]c12 [Hypoxanthine]
- collision cross section (N2) ([2]; [M+H]+): 120 Å²
- collision cross section (N2) ([3]; [M+H]+): 135.79 Å²
- collision cross section (N2) ([3]; [M+Na]+): 138.88 Å²
- collision cross section (N2) ([5]; [M+H]+): 127.1 Å²

Structure (SMILES): Nc1ccn([C@@H]2O[C@H](CO)[C@@H](O)[C@H]2O)c(=O)n1 [Cytidine]
- collision cross section (N2) ([2]; [M+H]+): 148 Å²
- collision cross section (N2) ([5]; [M+Na]+): 159.5 Å²

Structure (SMILES): Nc1nc(=O)c2ncn([C@@H]3O[C@H](COP(=O)(O)OP(=O)(O)OP(=O)(O)O)[C@@H](O)[C@H]3O)c2[nH]1 [GTP]
- collision cross section (N2) ([2]; [M+H]+): 196 Å²

Structure (SMILES): CCCCCCC/C=C\CCCCCCCC(=O)OC[C@@H](O)COP(=O)(O)OC[C@@H](O)CO [LPG(17:1)]
- collision cross section (N2) ([1]; [M-H]-): 213.5 Å²

Structure (SMILES): CCCCCCCC/C=C\CCCCCCCC(=O)OC[C@@H](O)COP(=O)(O)OC[C@@H](O)CO [LPG(18:1)]
- collision cross section (N2) ([1]; [M-H]-): 217.9 Å² and 216.9 Å²

Structure (SMILES): Cn1cnc(C[C@H](N)C(=O)O)c1 [1-Methylhistidine]
- collision cross section (N2) ([2]; [M+H]+): 129 Å²
- collision cross section (N2) ([5]; [M+H]+): 133.1 Å²
- collision cross section (N2) ([5]; [M-H]-): 139.64 Å²

Structure (SMILES): CCCC/C=C\C/C=C\CCCCCCCC(=O)O[C@H](COC(=O)CCCCCCCCCCCC)COP(=O)([O-])OCC[N+](C)(C)C [PC(14:1/16:1)]
- collision cross section (N2) ([1]; [M+H]+): 279.6 Å²

Structure (SMILES): CC(=O)O[C@H](CC(=O)[O-])C[N+](C)(C)C [Acetylcarnitine]
- collision cross section (N2) ([2]; [M+H]+): 142 Å²
- collision cross section (N2) ([5]; [M+H]+): 143 Å²

Structure (SMILES): NC(=O)c1ncn([C@@H]2O[C@H](CO)[C@@H](O)[C@H]2O)c1N [Acadesine]
- collision cross section (N2) ([2]; [M+H]+): 152 Å²

Structure (SMILES): OC[C@H]1OC(O)[C@@H](O)[C@@H](O)[C@@H]1O (stereo not given in full) [Mannose]
- collision cross section (N2) ([2]; [M+Na]+): 138 Å²

Structure (SMILES): CC(C)C[C@H](N)C(=O)O [Leucine]
- collision cross section (N2) ([2]; [M+H]+): 128 Å²

The next lines start with the values.

- collision cross section (N2) ([1]; [M-H]-): 266.7 Å²
Structure (SMILES): CCCCCCCC/C=C\CCCCCCCCCC(=O)O[C@H](COC(=O)CCCCCCCCCCCC)COP(=O)(O)OCCN [PE(33:1)]

- collision cross section (N2) ([1]; [M+H]+): 297.2 Å²
Structure (SMILES): CCCCC/C=C\C/C=C\CCCCCCCC(=O)O[C@H](COCCCCCCCCCCCCCCCC)COP(=O)([O-])OCC[N+](C)(C)C [PC(o34:2)]

- collision cross section (N2) ([4]; [M+H]+): 293.2 Å²
- collision cross section (N2) ([4]; [M+Na]+): 297.6 Å²
- collision cross section (N2) ([4]; [M-H]-): 286.9 Å²
- collision cross section (N2) ([1]; [M-H]-): 297.6 Å²
Structure (SMILES): CCCCC/C=C\C/C=C\CCCCCCCCCCCC(=O)O[C@H](COC(=O)CCCCCCC/C=C\C/C=C\CCCCC)COP(=O)(O)OC[C@H](N)C(=O)O [PS(40:4)]

- collision cross section (N2) ([1]; [M-H]-): 280.1 Å²
Structure (SMILES): CCCCCCCCCCCCCCCC(=O)OC[C@H](COP(=O)(O)O[C@H]1C(O)C(O)C(O)[C@@H](O)C1O)OC(=O)CCCCCCCCCCCCC (stereo not given in full) [PI(14:0/16:0)]

- collision cross section (N2) ([1]; [M-H]-): 268.7 Å²
Structure (SMILES): CCCCCCCC/C=C\CCCCCCCCCC(=O)O[C@H](COC(=O)CCCCCCCCCCC)COP(=O)(O)OC[C@@H](O)CO [PG(16:0/16:1)]

- collision cross section (N2) ([1]; [M+H]+): 303.1 Å²
Structure (SMILES): CCCCC/C=C\C/C=C\CCCCCCCC(=O)O[C@H](COCCCCCCCCCCCCCCCCCC)COP(=O)([O-])OCC[N+](C)(C)C [PC(o36:2)]

- collision cross section (N2) ([1]; [M-H]-): 276.7 Å² and 277.1 Å² and 277 Å²
Structure (SMILES): CCCCCCCCCC/C=C\CCCCCCCCCC(=O)O[C@H](COC(=O)CCCCCCCCCCC)COP(=O)(O)OC[C@@H](O)CO [PG(16:0/18:1)]

- collision cross section (N2) ([1]; [M+H]+): 287.8 Å²
- collision cross section (N2) ([3]; [M+H]+): 280.16 Å²
- collision cross section (N2) ([3]; [M+Na]+): 286.9 Å²
Structure (SMILES): CCCCC/C=C\C/C=C\CCCCCCCCCC(=O)O[C@H](COC(=O)CCCCCCCCCCC)COP(=O)([O-])OCC[N+](C)(C)C [PC(16:1/16:1)]

- collision cross section (N2) ([1]; [M+H]+): 302.7 Å² and 302.8 Å²
- collision cross section (N2) ([3]; [M+H]+): 296.42 Å² and 297.29 Å²
- collision cross section (N2) ([3]; [M+Na]+): 298.03 Å² and 300.74 Å²
Structure (SMILES): CCCCC/C=C\C/C=C\CCCCCCCCCCCC(=O)O[C@H](COC(=O)CCCCCCCCCCCCC)COP(=O)([O-])OCC[N+](C)(C)C [PC(18:1/18:1)]

- collision cross section (N2) ([1]; [M-H]-): 284.6 Å²
Structure (SMILES): CCCCCCCC/C=C\CCCCCCCCCC(=O)O[C@H](COC(=O)CCCCCCCCCCC)COP(=O)(O)O[C@H]1C(O)C(O)C(O)[C@@H](O)C1O (stereo not given in full) [PI(16:0/16:1)]

- collision cross section (N2) ([1]; [M-H]-): 282.9 Å²
Structure (SMILES): CCCC/C=C\CCCCCCCC(=O)OC[C@H](COP(=O)(O)O[C@H]1C(O)C(O)C(O)[C@@H](O)C1O)OC(=O)CCCCCCC/C=C\CCCCCCCC (stereo not given in full) [PI(16:1/16:1)]

- collision cross section (N2) ([2]; [M+Na]+): 131 Å²
Structure (SMILES): C=C(OP(=O)(O)O)C(=O)O [Phosphoenolpyruvate]

- collision cross section (N2) ([2]; [M+H]+): 227 Å²
Structure (SMILES): N[C@@H](CCC(=O)N[C@@H](CSSC[C@H](NC(=O)CC[C@H](N)C(=O)O)C(=O)NCC(=O)O)C(=O)NCC(=O)O)C(=O)O [glutathione disulfide]

- collision cross section (N2) ([1]; [M+H]+): 295.3 Å² and 295.1 Å²
Structure (SMILES): CCCCC/C=C\C/C=C\CCCCCCCCCC(=O)O[C@H](COC(=O)CCCCCCCCCCCCC)COP(=O)([O-])OCC[N+](C)(C)C [PC(16:1/18:1)]
